In patent US7723356B2, “Quinuclidine derivatives and their use as muscarinic m3 receptor antagonists” (Novartis AG, priority 2004, dated 2010):
pKi: −log10 of the molar value.

Target: T1, human muscarinic acetylcholine M3 receptor (Homo sapiens, UniProt P20309)
T1 construct: expressed in transfected cells; host or cells: CHO cells (stably transfected), membrane preparation
Experiment: competitive filtration binding assay with [3H] n-methyl scopolamine (NMS)
Details: membranes from CHO cells stably transfected with human M3 receptor, [3H]NMS 0.25 nM
Experimental: The affinity (Ki) of agents of the invention at the human muscarinic acetylcholine M3 receptor can be determined in a competitive filtration binding assay with the radio-labelled antagonist [^3H] n-methyl scopolamine methyl chloride. (NMS):
Membranes prepared from CHO cells stably transfected with human M3 receptor at 10 μg protein/well are incubated with serial dilutions of the agents of the invention, [^3H]NMS (0.25 nM) and assay buffer (20 mM HEPES, 1 mM MgCl2 at pH 7.4) for 17 hours at room temperature. The assay is carried out in a 250 μL final volume, in the presence of a final dimethyl sulfoxide concentration of 1%. Total binding of [^3H]NMS is determined in the absence of the agents of the invention with a corresponding substituted volume of assay buffer. Non-specific binding of [^3H] NMS is determined in the presence of 300 nM ipratropium bromide. Following the incubation period, the membranes are harvested onto a Unifilter™ GF/B filter plate containing 0.05% polyethyleneimine, using a Brandel™ filtration harvester 9600. Filter plates are dried for two hours at 35° C. before the addition of Microscint™ ‘O’ cocktail, and read on a Packard Topcount™ scintillator using a ^3H-Scintillation protocol. All IC50s are calculated with the aid of XL-Fit graph package and Ki values derived using the Cheng-Prusoff correction (Cheng Y., Prusoff W. H. (1973) Biochem. Pharmacol 22 3099-3109).

[1] = M3 Ki, 17 hours at room temperature, Cheng-Prusoff correction

T1 sequence (P20309 whole entry): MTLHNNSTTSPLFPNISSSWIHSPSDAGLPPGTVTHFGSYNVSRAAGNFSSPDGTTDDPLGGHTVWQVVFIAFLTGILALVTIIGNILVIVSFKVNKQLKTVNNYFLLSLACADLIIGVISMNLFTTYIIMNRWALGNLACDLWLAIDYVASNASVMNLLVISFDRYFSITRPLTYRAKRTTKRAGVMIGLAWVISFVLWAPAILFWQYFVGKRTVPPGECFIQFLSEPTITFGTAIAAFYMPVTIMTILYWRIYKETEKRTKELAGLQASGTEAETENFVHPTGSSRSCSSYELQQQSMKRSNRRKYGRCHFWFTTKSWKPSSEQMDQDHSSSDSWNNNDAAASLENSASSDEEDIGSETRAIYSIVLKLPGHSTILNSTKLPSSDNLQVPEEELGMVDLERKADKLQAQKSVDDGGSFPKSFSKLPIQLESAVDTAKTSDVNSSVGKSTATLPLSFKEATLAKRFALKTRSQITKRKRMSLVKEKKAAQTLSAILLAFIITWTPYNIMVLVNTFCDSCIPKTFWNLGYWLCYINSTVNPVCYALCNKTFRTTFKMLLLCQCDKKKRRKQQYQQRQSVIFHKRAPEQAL

## O=C(C[N+]12CCC(CC1)[C@@H](OC(=O)C(O)(c1ccccc1Cl)c1ccccc1Cl)C2)Nc1ccon1 [Example 1, (R)-3-[2,2-Bis-(2-chloro-phenyl)-2-hydroxy-acetoxy]-1-(isoxazol-3-ylcarbamoylmethyl)-1-azonia-bicyclo[2.2.2]octane bromide]
[1]
  pKi: 8.64

## Cc1ccc(C(O)(C(=O)O[C@H]2C[N+]3(CC(=O)Nc4ccon4)CCC2CC3)c2ccc(C)cc2)cc1 [Example 2, (R)-3-(2-Hydroxy-2,2-di-p-tolyl-acetoxy)-1-(isoxazol-3-ylcarbamoylmethyl)-1-azonia-bicyclo[2.2.2]octane bromide]
[1]
  pKi: 8.85

## CC(C(=O)O[C@H]1C[N+]2(CC(=O)Nc3ccon3)CCC1CC2)(c1ccccc1)c1ccccc1 [Example 4, (R)-3-(2,2-Diphenyl-propionyloxy)-1-(isoxazol-3-ylcarbamoylmethyl)-1-azonia-bicyclo[2.2.2]octane bromide]
[1]
  pKi: 9.19

## O=C(C[N+]12CCC(CC1)[C@@H](OC(=O)C(c1ccccc1)c1ccccc1)C2)Nc1ccon1 [Example 5, (R)-3-Diphenylacetoxy-1-(isoxazol-3-ylcarbamoylmethyl)-1-azonia-icyclo[2.2.2]octane bromide]
[1]
  pKi: 9.20

## O=C(C[N+]12CCC(CC1)[C@@H](OC(=O)C(O)(c1ccccc1)C1CCCCC1)C2)Nc1ccon1 (stereo partly drawn) [Example 8, (R)-3-(2-Cyclohexyl-2-hydroxy-2-phenyl-acetoxy)-1-(isoxazol-3-ylcarbamoylmethyl)-1-azonia-bicyclo[2.2.2]octane bromide]
[1]
  pKi: 9.12
M3 pKi
  pKi: 10.90

## O=C(C[N+]12CCC(CC1)[C@@H](OC(=O)C(O)(c1cccs1)C1CCCCC1)C2)Nc1ccon1 (stereo partly drawn) [Example 10, (R)-3-(2-Cyclohexyl-2-hydroxy-2-thiophen-2-yl-acetoxy)-1-(isoxazol-3-ylcarbamoylmethyl)-1-azonia-bicyclo[2.2.2]octane bromide]
M3 pKi
  pKi: 10.94

## O=C(C[N+]12CCC(CC1)[C@@H](OC(=O)C(O)(c1ccccc1)C1CCCC1)C2)Nc1ccon1 (stereo partly drawn) [Example 11, (R)-3-(2-Cyclopentyl-2-hydroxy-2-phenyl-acetoxy)-1-(isoxazol-3-ylcarbamoyl-methyl)-1-azonia-bicyclo[2.2.2]octane bromide]
M3 pKi
  pKi: 11.20
